Experimental data from patent US10988524B2, “Modified relaxin B chain peptides and their therapeutic use” (priority 2018, dated 2021).
Converted amounts (≈) assume the structure as drawn. Where two headings read alike, the source gives them in different places. Non-standard residues stand in square brackets, D forms with d. Residues, ends and D or L forms follow the SMILES beside them. Nle = CCCC[C@H](N)C(=O)O; Aib = CC(C)(N)C(=O)O

Key:
[1] = Stability in rat plasma; type: in vitro ADME; conditions: 37° C.; for Rat plasma stability % remaining, T = 0: 5 μM; for remaining at 1 h, 5 μM / remaining at 4 h, 5 μM: rat plasma (sodium or lithium heparin)
Protocol: (§1) Prior to the testing of stability in plasma of a peptide batch, its purity (HPLC-UV) was determined.
(§2) Rat and Human plasma: anti-coagulant sodium or lithium heparin.
(§3) 100 μM solution of study compound in 50 mM Phosphate buffer pH 7.4.
(§4) 950 μL plasma is pre-incubated for 5 min at 37° C. 50 μL of compound stock solution is added. Final compound concentration=5 μM. Vortex and transfer 1504, plasma into an Eppendorf for each time point. The time points 0-1 and −4 h are carried out in duplicate for each species.
(§5) After incubation extract 1504, plasma with 6004, Acetonitrile containing with 1% TFA. Vortex and centrifuge 10 min at 14600 rpm. Dry 2004, supernatant under N2. Reconstitute sample in 200 μL of H2O/CH3CN 98/2+0.1% FA+50 ng/ml Labetalol and analyze using the analytical system used in solubility and stability studies.
(§6) For determination of the amount of the remaining peptide, the peak areas of the target compound at t0 and each time point […] were compared, resulting in “% remaining peptide”, following the equation
(§7) % remaining peptide=[(peak area peptide time)×100]/peak area peptide t0. The stability is expressed as “% remaining peptide”.

[2] = Solubility testing of peptides in buffer; type: physicochemical
[3] = Stability in human plasma; type: in vitro ADME; conditions: 37° C.; for Human Plasma stability % remaining, T = 0: 5 μM; for remaining at 1 h, 5 μM / remaining at 4 h, 5 μM: human plasma (sodium or lithium heparin)
Protocol: as §1, §2, §3, §4, §5, §6, §7

[4] = target: T1, RXFP1 (Homo sapiens, UniProt Q9HBX9); assay: OVCAR5 cAMP assay (RXFP1 agonist activity, HTRF); conditions: for Emax: OVCAR-5, read-out: cAMP assay in OVCAR 5 cells Emax, maximal intracellular cAMP relative to H2-relaxin in the same test occasion
T1 sequence (Q9HBX9 1-757): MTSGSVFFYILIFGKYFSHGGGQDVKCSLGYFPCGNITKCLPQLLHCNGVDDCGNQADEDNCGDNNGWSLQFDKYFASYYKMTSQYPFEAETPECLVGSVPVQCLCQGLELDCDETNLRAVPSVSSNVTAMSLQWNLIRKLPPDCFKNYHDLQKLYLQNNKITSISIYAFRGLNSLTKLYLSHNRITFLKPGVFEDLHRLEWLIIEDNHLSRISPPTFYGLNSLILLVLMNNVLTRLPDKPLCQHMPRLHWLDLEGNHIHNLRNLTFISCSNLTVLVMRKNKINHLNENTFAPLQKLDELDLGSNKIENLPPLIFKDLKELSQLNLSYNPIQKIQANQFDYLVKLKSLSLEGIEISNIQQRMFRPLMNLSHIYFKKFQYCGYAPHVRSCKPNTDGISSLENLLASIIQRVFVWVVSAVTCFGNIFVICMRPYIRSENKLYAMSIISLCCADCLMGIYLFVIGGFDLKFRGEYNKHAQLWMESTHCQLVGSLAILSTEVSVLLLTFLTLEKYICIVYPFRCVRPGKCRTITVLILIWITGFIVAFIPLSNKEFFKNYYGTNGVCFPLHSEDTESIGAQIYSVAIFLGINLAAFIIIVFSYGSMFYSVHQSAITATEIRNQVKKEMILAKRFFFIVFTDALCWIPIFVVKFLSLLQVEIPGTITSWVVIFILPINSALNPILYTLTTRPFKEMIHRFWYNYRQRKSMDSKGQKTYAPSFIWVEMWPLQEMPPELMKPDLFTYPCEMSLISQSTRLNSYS

[5] = acetate buffer, pH 4.5, read-out: Solubility Acetate buffer pH 4.5
[6] = phosphate buffer, pH 7.4, read-out: Solubility phosphate buffer pH 7.4

Rat plasma stability % remaining, T = 0 [1] | remaining at 1 h, 5 μM [1] | remaining at 4 h, 5 μM [1] | solubility ([2]; Acetate buffer 50 mM pH 4.5, target solubility 3.0 mg/ml, ~19 h, read-out: Solubility Acetate buffer pH 4.5) | solubility ([2]; Phosphate buffer 50 mM pH 7.4, target solubility 3.0 mg/ml, ~19 h, read-out: Solubility phosphate buffer pH 7.4) | Human Plasma stability % remaining, T = 0 [3] | remaining at 1 h, 5 μM [3] | remaining at 4 h, 5 μM [3] | Emax [4] | solubility [2, 5] | solubility [2, 6] | EC50 ([4]; cAMP assay in OVCAR 5 cells EC50 (nM), OVCAR5 cells expressing endogenous RXFP1, cAMP by HTRF, 30 min at 37° C., 1 mM IBMX) | Structure (SMILES)
100% | 78% | 55% | ≥ 3300 µg/mL | ≥ 2900 µg/mL | 100% | 85% | 64% | 97% |  |  |  | CCCC[C@H](NC(=O)CNC(=O)[C@H](CCC(=O)O)NC(=O)C(C)(C)NC(=O)C(C)(C)NC(=O)[C@@H](NC(=O)[C@H](CCC(N)=O)NC(=O)[C@H](C)NC(=O)[C@H](CCCNC(=N)N)NC(=O)[C@@H](NC(=O)[C@H](CCCCN)NC(=O)[C@H](CCC(=O)O)NC(=O)[C@H](CCCNC(=N)N)NC(=O)CNC(=O)[C@H](CCC(=O)O)NC(=O)[C@H](CC(C)C)NC(C)=O)C(C)C)[C@@H](C)CC)C(=O)N[C@@H](CO)C(=O)N[C@H](C(=O)N[C@@H](Cc1c[nH]c2ccccc12)C(=O)N[C@@H](CO)C(=O)NC(C)(C)C(=O)N[C@@H](CCCNC(=N)N)C(=O)N[C@@H](CCCCN)C(=O)N[C@@H](CCCCN)C(N)=O)[C@@H](C)O [compound 3] (Ac-LEGREKVRAQI[Aib][Aib]EG[Nle]STWS[Aib]RKK-NH2)
100% | 91% | 101% |  |  | 100% | 95% | 93% | 99% | ≥ 6100 µg/mL | ≥ 5800 µg/mL |  | CC[C@H](C)[C@H](NC(=O)[C@H](CCC(N)=O)NC(=O)[C@H](C)NC(=O)[C@H](CCCNC(=N)N)NC(=O)[C@@H](NC(=O)[C@H](CCCCN)NC(=O)[C@H](CCC(=O)O)NC(=O)[C@H](CCCNC(=N)N)NC(=O)CNC(=O)[C@H](CCC(=O)O)NC(=O)[C@H](CC(C)C)NC(C)=O)C(C)C)C(=O)NC(C)(C)C(=O)NC(C)(C)C(=O)N[C@@H](CCC(=O)O)C(=O)NCC(=O)N[C@@H](CCSC)C(=O)N[C@@H](CO)C(=O)N[C@H](C(=O)N[C@@H](Cc1c[nH]c2ccccc12)C(=O)N[C@@H](CO)C(=O)NC(C)(C)C(=O)N[C@@H](CCCNC(=N)N)C(=O)N[C@@H](CCCCN)C(=O)N[C@@H](CCCCN)C(N)=O)[C@@H](C)O [compound 4] (Ac-LEGREKVRAQI[Aib][Aib]EGMSTWS[Aib]RKK-NH2)
100% | 86% | 60% |  |  | 100% | 93% | 74% | 98% | 4000 µg/mL (≈ 1400 µM) | 4000 µg/mL (≈ 1400 µM) | ≤ 10 nM | CCCC[C@H](NC(=O)CNC(=O)[C@H](CCC(=O)O)NC(=O)C(C)(C)NC(=O)C(C)(C)NC(=O)[C@@H](NC(=O)[C@H](CCCCNC(C)=O)NC(=O)[C@H](C)NC(=O)[C@H](CCCNC(=N)N)NC(=O)[C@@H](NC(=O)[C@H](CCCCN)NC(=O)[C@H](CCC(=O)O)NC(=O)[C@H](CCCNC(=N)N)NC(=O)CNC(=O)[C@H](CCC(=O)O)NC(=O)[C@H](CC(C)C)NC(C)=O)C(C)C)[C@@H](C)CC)C(=O)N[C@@H](CO)C(=O)N[C@H](C(=O)N[C@@H](Cc1c[nH]c2ccccc12)C(=O)N[C@@H](CO)C(=O)NC(C)(C)C(=O)N[C@@H](CCCNC(=N)N)C(=O)N[C@@H](CCCCN)C(=O)N[C@@H](CCCCNC(C)=O)C(N)=O)[C@@H](C)O [compound 5] (Ac-LEGREKVRAK(Ac)I[Aib][Aib]EG[Nle]STWS[Aib]RKK(Ac)-NH2)
